Target: T1, DTX2 (Homo sapiens, UniProt Q86UW9)
T1 sequence (Q86UW9 1-622): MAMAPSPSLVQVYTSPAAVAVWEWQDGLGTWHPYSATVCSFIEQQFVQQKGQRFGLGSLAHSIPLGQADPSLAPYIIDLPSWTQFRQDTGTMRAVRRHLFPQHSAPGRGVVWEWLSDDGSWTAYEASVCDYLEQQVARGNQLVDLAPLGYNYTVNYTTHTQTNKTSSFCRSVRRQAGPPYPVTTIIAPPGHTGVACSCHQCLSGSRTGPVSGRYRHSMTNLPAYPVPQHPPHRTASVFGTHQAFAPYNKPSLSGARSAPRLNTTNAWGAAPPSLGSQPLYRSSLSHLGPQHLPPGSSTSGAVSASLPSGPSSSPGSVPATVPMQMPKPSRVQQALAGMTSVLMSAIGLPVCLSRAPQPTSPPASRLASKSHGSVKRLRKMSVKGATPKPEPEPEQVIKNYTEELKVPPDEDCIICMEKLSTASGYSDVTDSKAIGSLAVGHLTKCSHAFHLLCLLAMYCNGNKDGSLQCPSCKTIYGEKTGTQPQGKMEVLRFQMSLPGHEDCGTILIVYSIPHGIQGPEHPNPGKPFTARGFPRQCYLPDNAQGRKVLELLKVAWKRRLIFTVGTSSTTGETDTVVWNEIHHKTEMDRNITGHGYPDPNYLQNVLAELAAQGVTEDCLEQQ
Assay: ubiquitylation of OP-ADPr, ion exchange and intact mass spectrometry
Type: biochemical
Conditions: co-substrate purified E2~Ub conjugate; pH 7.4, 37 °C, 150 mM NaCl

`C#CCO[C@H]1O[C@H](COP(=O)(O)OP(=O)(O)OC[C@H]2O[C@@H](n3cnc4c(N)ncnc43)[C@H](O)[C@@H]2O)[C@@H](O)[C@H]1O` [compound 8, OP-ADPr] was tested, and the “ubiquitylation of OP-ADPr, ion exchange and intact mass spectrometry” value was “We next coupled Ub to OP-ADPr using DTX2 to generate an ester-linked Ub-OP-ADPr”.

Source: paper PMC12132378 (bioRxiv, 2025)
